Assay results taken from PubChem BioAssay AID179 (DTP/NCI, 2004).
Active and inactive are the calls of the source.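 The calls were made as follows: active = compounds giving half or more protection of infected cells from virus-caused growth loss, again on retest; inactive = the rest.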

Tested on: CEM cells HIV-1 protection, formazan growth assay
Assay: NCI AIDS Antiviral Assay
Conditions: for IC50: measured here: growth of uninfected CEM cells
Outline: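 Category rules: moderately active means at least 50% protection on retest, and confirmed active means 100% protection reproducibly. The underlying data came from a formazan growth assay in HIV-1-infected CEM cells.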

SMILES	EC50	IC50	outcome
Cc1ccc(S(=O)(=O)[N-]C2C(=O)c3ccccc3C(=O)C2[n+]2cccc(C(N)=O)c2)cc1 (stereo unspecified)	> 200 µM	> 200 µM	–
COC(=O)c1cc(C(=O)OC)c(C/C(=N/NC(N)=S)C(=O)Nc2c(C)cccc2C)nc1CC(=Nc1c(C)cccc1C)NNC(N)=S	> 200 µM	> 200 µM	–
O=C1c2cc(-c3ccccc3)cnc2S(=O)(=O)N1c1ccc(Br)cc1	> 200 µM	16.6 µM	–
CC1(C)C(=O)C(C)(C)C1=S	> 219 µM	> 219 µM	–
CN(C)CCNC(=O)c1cccc2c(Nc3ccc(S(N)(=O)=O)cc3)c3ccccc3nc12	–	–	inactive
COc1ccc(C[n+]2cccc(O)c2)cc1	> 200 µM	112 µM	–
O=CNc1cccc2c(=O)[nH][nH]c(=O)c12	> 126 µM	> 126 µM	–
COc1cccc(-c2nc(-c3cnccn3)n(C3OC(CO)C(O)C(O)C3O)n2)c1 (stereo unspecified)	> 200 µM	> 200 µM	–
O=C1c2ccccc2-c2c1c1ccccc1c(=O)n2-c1cccnc1	> 30.9 µM	7.08 µM	–
COc1ccc(C(O)C(=O)c2nc3ccc(Cl)cc3[nH]c2=O)cc1 (stereo unspecified)	–	–	inactive
O=[N+]([O-])c1ccc(-c2cnc3ccccn23)cc1	> 105 µM	> 105 µM	–
O=C1C=CC[C@H]2O[C@@H](COC(=O)Cc3ccccc3)C[C@H]2O1	> 200 µM	34.7 µM	–
Cn1c(=O)c2c(nc(Nc3ccc(Cl)cc3)n3c(=O)n(-c4ccccc4)c(=O)n23)n(C)c1=O	> 200 µM	145 µM	–
S=C(Cc1ccc2c(c1)Sc1ccccc1O2)N1CCOCC1	> 200 µM	27.5 µM	–
COC(=O)/C=C(C)/C=C/C1OC(C)OCC1O (stereo unspecified)	> 1020 µM	> 1020 µM	–
COc1ccc2c(c1)C(=O)C13CC(C(=O)O)C(OC(C)=O)(CCC21)C3 (stereo unspecified)	> 89.1 µM	> 89.1 µM	–
CCCc1cc(=O)oc2c3c(c4c(c12)OC(C)(C)CC4)OC(C)[C@H](C)[C@@H]3O (stereo partly specified)	14.8 µM	15.1 µM	–
CCOP(C)(=O)/C(Cc1ccc(OC)c(OC)c1)=N\O (stereo unspecified)	> 200 µM	> 200 µM	–
C=C(C)C#CC1(O)C=C(OC)C(OC)=CC1=O (stereo unspecified)	> 200 µM	20.9 µM	–
N#CC12C(=O)NC(=O)C1(C#N)C1C=CC2CC1 (stereo unspecified)	> 200 µM	> 200 µM	–
O=C1CCC2(c3ccccc3)Nc3ccc(Cl)cc3N12 (stereo unspecified)	–	–	inactive
NC(N)=NS(=O)(=O)c1ccc(NC(=O)c2cccc3c(=O)c4ccccc4[nH]c23)cc1	–	–	inactive

SMILES	EC50	IC50	outcome
CC(=O)N1c2ccccc2C(C)C1c1[nH]c2ccccc2c1C (stereo unspecified)	> 200 µM	30.2 µM	–
O=C1CCC2(c3ccc(F)cc3)Nc3ccccc3N12 (stereo unspecified)	–	–	inactive
N#Cc1sc2nc(/C=C3/C=CC=CC3=O)c(O)n2c1N	> 200 µM	93.3 µM	–
CC(=O)NCC1OC2COC(c3ccccc3)OC2C(NC(=O)c2ccccc2)C1OC(=O)c1ccccc1 (stereo unspecified)	–	–	inactive
Cc1cc(C)c(/C=C(\C(=C/c2c(C)cc(C)cc2C)[N+](=O)[O-])[N+](=O)[O-])c(C)c1	> 100 µM	> 100 µM	–
O=C(Nc1cc2c(oc1=O)CCCCC2)c1ccccc1	> 200 µM	> 200 µM	–
O=C(C=P(c1ccccc1)(c1ccccc1)c1ccccc1)c1ccccc1-c1ccccc1C(=O)C=P(c1ccccc1)(c1ccccc1)c1ccccc1	> 1 µM	0.107 µM	–
O=c1/c(=C\C=C\c2ccccc2)sc2n1CCN=2	–	–	inactive
CC1(C)C2C=CC1C(=O)CC2 (stereo unspecified)	> 389 µM	> 389 µM	–
Cc1nc(Nc2ccc(Cl)cc2)sc1C(=O)Nc1cccc2c(=O)[nH][nH]c(=O)c12	> 17 µM	> 17 µM	–
NC(C/[N+]([O-])=N/O)C(=O)O (stereo unspecified)	> 11 µM	2.4 µM	–
CCOC(=O)C(NC(=O)CC(C)C)(Nc1ccc(S(=O)(=O)Nc2nc(C)cc(C)n2)cc1)C(F)(F)F (stereo unspecified)	> 200 µM	> 200 µM	–
COc1ccc(-c2sc(/N=C/c3ccc(N(C)CCC#N)cc3)c(C#N)c2C)cc1OC	> 501 µM	339 µM	–
CC(=O)Nc1ccc(S(=O)(=O)/N=C(/C2CCCC2)N2CCCC2)cc1	> 200 µM	> 200 µM	–
O=C(Cc1ccccc1)NCCc1ccc(O)c(O)c1	> 200 µM	27.5 µM	–
O=c1cc(-c2ccccc2)oc2cc(OCC(O)COc3ccc4c(=O)cc(-c5ccccc5)oc4c3)ccc12	> 25.7 µM	> 25.7 µM	–
CCOC(=O)c1cccc(=O)c(C(=O)OCC)c1	–	–	inactive
COc1ccc(C(=O)O/N=C2\CCCC\C2=C/c2ccccc2)cc1	–	–	inactive
CCc1cccc(C(C)(C)C)c1NC(=S)N/C=C(\c1ccccc1)S(=O)Cc1ccccc1 (stereo unspecified)	182 µM	> 200 µM	–
O=C(O)c1cccc(C(=O)c2ccccc2)c1	> 200 µM	> 200 µM	–
Cn1c(=O)c2cc(O)cnc2n(C)c1=O	> 200 µM	> 200 µM	–
COc1ccc(NS(=O)(=O)c2ccc3ncn(NS(=O)(=O)c4ccc(I)cc4)c(=O)c3c2)cc1	–	–	inactive

SMILES	EC50	IC50	outcome
N#Cc1c(N2CCC(O)C2)c2ccccc2n2c1nc1ccccc12 (stereo unspecified)	> 50.1 µM	> 50.1 µM	–
O=C(NCCN1CCOCC1)c1cn2c(ccc3sc4ccccc4c(=O)c32)n1	> 200 µM	3.55 µM	–
OCC(O)C(O)C(O)c1nn(-c2ccccc2)c2nc3ccc(Cl)cc3nc12 (stereo unspecified)	> 112 µM	> 112 µM	–
CCOC(=O)c1cc2c3ccn(Cc4ccccc4)c3c3c(C)[nH]oc3c2n1	26.3 µM	> 200 µM	–
CC(=O)O[C@H]1CC[C@H]2[C@@H]3CCc4cc(O)c(I)cc4[C@H]3CC[C@]12C	> 200 µM	12 µM	–
N#Cc1ccc(C2Oc3ccc(Cl)cc3C=C2[N+](=O)[O-])cc1 (stereo unspecified)	> 200 µM	0.977 µM	–
COc1ccc(N2C(=O)C3c4[nH]c5c(C)cccc5c4C4CCC(C(C)(C)C)CC4C3C2=O)cc1 (stereo unspecified)	> 200 µM	7.94 µM	–
O=c1[nH]nc(Cc2ccccc2)[nH]1	> 200 µM	> 200 µM	–
CC(=N/NC(=S)N1CCCCC1)/C(C)=N\NC(=S)N1CCCCC1	> 200 µM	2.24 µM	–
COc1cc(-c2oc3c(Cl)cc(Cl)cc3c(=O)c2O)cc(OC)c1OC	> 200 µM	38 µM	–
CN1CN(c2ccccc2)C2(CCN(Cc3csc4ccccc34)CC2)C1=O	> 200 µM	66.1 µM	–
Oc1ccc(Cl)cc1CN1CCN(Cc2cc(Cl)ccc2O)C1	> 200 µM	1.38 µM	–
O=C(O)[C@@H](NS(=O)(=O)c1ccc2ccccc2c1)c1ccccc1	–	–	inactive
Cc1ccc(-c2cn3c(nc4ccccc43)c(-c3ccccc3)n2)cc1	> 200 µM	174 µM	–
Fc1ccc(F)c(C2SCc3nc4ccccc4n32)c1 (stereo unspecified)	–	–	inactive
CC1=C(C)CC2(CCCCC2=O)S(=O)C1 (stereo unspecified)	> 1100 µM	851 µM	–
COC(=O)C(N)CSc1ccc([N+](=O)[O-])cc1[N+](=O)[O-] (stereo unspecified)	> 741 µM	115 µM	–
Cc1ccc(S(=O)(=O)C2CC3CC2C2COCC32)cc1 (stereo unspecified)	> 75.9 µM	> 75.9 µM	–
CCOC(=O)/C=C/SC(C)(C)C(N)C(=O)O (stereo unspecified)	> 1000 µM	> 1000 µM	–
C1CSCCSS[C@@H]2CCCCC2SC1 (stereo partly specified)	> 33.9 µM	> 33.9 µM	–
COC(=O)N1CCC(Sc2ccccc2)C2(CCSc3ccccc3)CCC=C12 (stereo unspecified)	> 12.3 µM	> 12.3 µM	–
CC(=O)O[C@H]1CC[C@H]2[C@@H]3CCC4=C/C(=N/OCCN(C)C)CC[C@]4(C)[C@H]3CC[C@]12C	> 200 µM	0.955 µM	–

SMILES	EC50	IC50	outcome
O=C1CC(NC(=O)C(F)(F)F)c2c1csc2Br (stereo unspecified)	> 200 µM	115 µM	–
CCN(CC)C(=O)SCCSC(=O)N(CC)CC	> 100 µM	> 100 µM	–
CC(C)(C)n1c(=O)[nH]n(C2NN=Cc3cccc4cccc2c34)c1=O (stereo unspecified)	> 200 µM	24 µM	–
NC(=S)N/N=C\CC(O)(C(F)(F)F)C(F)(F)F	> 200 µM	> 200 µM	–
CN/N=C(\C)C(CN(C)C)C(c1ccccc1)c1c(O)c2ccccc2oc1=O (stereo unspecified)	> 135 µM	102 µM	–
Nc1ccc(C(=O)N/C(=C\C=C\c2ccco2)c2nc3[nH]c(=S)[nH]c(=O)c3[nH]2)cc1	–	–	inactive
C=C(CC(=O)Nc1ccc(C(=O)OC)o1)C(=O)OC	> 200 µM	3.89 µM	–
CC(=O)OCC(=O)[C@@]1(O)CC[C@H]2[C@@H]3C[C@H](C)C4=CC(=O)C=C[C@]4(C)[C@@]3(Br)[C@@H](O)C[C@@]21C	–	–	inactive
CCOC(=O)c1ccc(NC(=O)Nc2ncccc2C)cc1	> 200 µM	> 200 µM	–
CCOC(=O)c1c(NCc2ccccc2)n(-c2ccccc2)c(=S)n(-c2ccccc2)c1=O	> 40.7 µM	30.2 µM	–
C=CCN1/C(=C(\C#N)c2nc3ccccc3[nH]2)Sc2c1nc[nH]c2=O	> 10.7 µM	> 10.7 µM	–
Cc1ccccc1-n1c2nc(=O)n(C)c(=O)c-2nc2ccccc21	–	–	inactive
OCC(CCc1ccccc1I)C1=CCC2(CC1)OCCO2 (stereo unspecified)	> 200 µM	34.7 µM	–
O=C(OCCOC(=O)c1ccc2c(c1)C1(SCCS1)c1ccccc1-2)c1ccc2c(c1)C1(SCCS1)c1ccccc1-2	> 30.2 µM	> 30.2 µM	–
CCCCc1ccc(Nc2nc3c(ncn3COCCBr)c(=O)[nH]2)cc1	> 200 µM	> 200 µM	–
Cc1ccc2c(c1)C(=O)C1(Cc3ccccc3C1=O)C2 (stereo unspecified)	> 200 µM	> 200 µM	–
CCCCCC(O)C1C(=O)OC(C)C(O)/C=C/C=C/C=C/C=C\C=C(\C)C(O)CC(O)CC(O)CC(O)CC(O)CC(O)CC1O (stereo unspecified)	> 200 µM	> 200 µM	–
O=c1c(O)c(-c2ccccc2)oc2ccccc12	> 93.3 µM	18.6 µM	–
CC1=Nn2c(nnc2-c2ccc(N)cc2)NC(C)(C)C1	> 933 µM	> 933 µM	–
C[N+](C)(C)C.[C-]#[O+].[C-]#[O+].[C-]#[O+].[C-]#[O+].[Cr].c1ccc(N=N[N-]c2ccccc2)cc1	> 1.26 µM	> 1.26 µM	–
O=[N+]([O-])c1ccc(C(O)(C#CCN2CCCC2)c2ccccc2)cc1 (stereo unspecified)	> 200 µM	> 100 µM	–
O=C1CC2[C@@H](N3CCCC3)CCC(N1Cc1ccccc1)C2(O)O (stereo partly specified)	> 200 µM	> 200 µM	–
